Test results taken from US10683297B2 (Sunshine Lake Pharma Co., Ltd., priority 2017, dated 2020).

Columns and labels:
Format in all cases: biochemical
JAK3 (h) = molecular target: T1, JAK3 (h) (Homo sapiens, UniProt P52333); assay: JAK3 (h) kinase assay; conditions: [γ-33P-ATP] 10 μM or KM values; 40 minutes at room temperature
T1 construct: purchased Millipore UK Ltd (assays performed there as a service)
T1 sequence (P52333 1-1124): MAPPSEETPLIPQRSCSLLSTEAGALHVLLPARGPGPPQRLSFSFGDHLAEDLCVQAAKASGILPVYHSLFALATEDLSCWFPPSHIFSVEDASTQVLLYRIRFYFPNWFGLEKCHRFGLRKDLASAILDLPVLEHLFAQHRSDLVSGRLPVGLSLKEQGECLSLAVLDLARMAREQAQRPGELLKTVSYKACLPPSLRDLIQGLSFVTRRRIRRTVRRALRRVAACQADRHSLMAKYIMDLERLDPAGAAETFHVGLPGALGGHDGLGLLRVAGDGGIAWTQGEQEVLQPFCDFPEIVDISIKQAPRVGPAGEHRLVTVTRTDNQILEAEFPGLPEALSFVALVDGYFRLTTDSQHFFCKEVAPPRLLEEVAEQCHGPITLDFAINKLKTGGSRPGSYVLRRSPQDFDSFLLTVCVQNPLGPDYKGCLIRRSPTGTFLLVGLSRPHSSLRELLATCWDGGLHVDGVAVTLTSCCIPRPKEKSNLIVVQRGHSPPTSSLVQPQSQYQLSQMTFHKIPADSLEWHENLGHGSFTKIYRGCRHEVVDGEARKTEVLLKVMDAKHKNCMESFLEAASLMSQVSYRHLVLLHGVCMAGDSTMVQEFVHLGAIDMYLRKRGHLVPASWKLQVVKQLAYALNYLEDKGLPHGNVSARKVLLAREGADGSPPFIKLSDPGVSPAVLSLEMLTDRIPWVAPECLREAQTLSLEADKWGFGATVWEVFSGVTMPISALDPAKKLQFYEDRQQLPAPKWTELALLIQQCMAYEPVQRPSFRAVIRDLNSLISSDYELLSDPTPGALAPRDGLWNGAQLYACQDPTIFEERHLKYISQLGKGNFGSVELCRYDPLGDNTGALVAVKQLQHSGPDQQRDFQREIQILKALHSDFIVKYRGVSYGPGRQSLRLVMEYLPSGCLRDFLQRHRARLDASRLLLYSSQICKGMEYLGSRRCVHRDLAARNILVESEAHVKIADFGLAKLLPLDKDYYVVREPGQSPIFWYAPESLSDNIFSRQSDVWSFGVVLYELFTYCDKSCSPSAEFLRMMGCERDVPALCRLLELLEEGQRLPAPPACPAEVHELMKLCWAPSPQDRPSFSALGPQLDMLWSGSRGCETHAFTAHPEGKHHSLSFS
Method: (§1) Kinase assays can be performed by measurement of incorporation of γ-^33P ATP into immobilized myelin basic protein (MBP). High binding white 384 well plates (Greiner) are coated with MBP (Sigma # M-1891) by incubation of 60 μL well of 20 μg/mL MBP in Tris-buffered saline (TBS; 50 mM Tris pH 8.0, 138 mM NaCl, 2.7 mM KCl) for 24 h at 4° C. Plates are washed 3× with 100 μL TBS. Kinase reactions are carried out in a total volume of 34 μL in kinase buffer (according to the need to make, for example, 5 mM Hepes pH 7.6, 15 mM NaCl, 0.01% bovine gamma globulin (Sigma #1-5506), 10 mM MgCl2, 1 mM DTT, 0.02% TritonX-100). Compound dilutions are performed in DMSO and added to assay wells to a final DMSO concentration of 1%. Each data point is measured in duplicate, and at least two duplicate assays are performed for each individual compound determination. Enzyme is added to final concentrations of 10 nM or 20 nM, for example. A mixture of unlabeled ATP and γ-^33P ATP is added to start the reaction (2×10^6 cpm of γ-^33P ATP per well (3000 Ci/mmole) and 10 μM unlabeled ATP, typically. The reactions are carried out for 1 hour at room temperature with shaking. Plates are washed 7× with TBS, followed by the addition of 50 μL well scintillation fluid (Wallac). Plates are read using a Wallac Trilux counter. This is only one format of such assays; various other formats are possible, as known to one skilled in the art.
(§2) The above assay procedure can be used to determine the IC50 for inhibition and/or the inhibition constant, Ki. […] The IC50 value is estimated by preparing a 10 point curve using a ½ log dilution series (for example, a typical curve may be prepared using the following compound concentrations: 3 μM, 1 μM, 0.3 μM, 0.1 μM, 0.03 μM, 0.01 μM, 0.003 μM, 0.001 μM, 0.0003 μM and 0 μM).
(§3) (specific activity approx. 500 cpm/pmol, 10 μM or KM values). The reaction is initiated by the addition of the MgATP mix. After incubation for 40 minutes at room temperature, the reaction is stopped by the addition of 3% phosphoric acid solution. 10 μL of the reaction is then spotted onto a P30 filtermat and washed three times for 5 minutes in 75 mM phosphoric acid and once in methanol prior to drying and scintillation counting.
(§4) The kinase assays described herein were performed at Millipore UK Ltd, Dundee Technology Park, Dundee DD2 1SW, UK.

TYK2 (h) = molecular target: T2, TYK2 (h) (Homo sapiens, UniProt P29597); assay: TYK2 (h) kinase assay; conditions: [γ-33P-ATP] 10 μM or KM values; 40 minutes at room temperature
T2 construct: purchased Millipore UK Ltd (assays performed there as a service)
Method: as §1, §2
as §3, with “TYK2 (h) is incubated with 8 mM MOPS pH 7.0, 0.2 mM EDTA, 250 μM […], 10 mM MgAcetate and [γ-^33P-ATP] (specific” for “(specific”
as §4

FLT4 (h) = molecular target: T3, FLT4 (h) (Homo sapiens, UniProt P35916); assay: FLT4 (h) kinase assay; conditions: [γ-33P-ATP] 10 μM or KM values; cells tagged (Flt4); read-out: IC50 (Flt4), printed in the FLT3 (h) column
T3 construct: purchased Millipore UK Ltd (assays performed there as a service)
Method: as §1, §2
as §3, with “FLT4 (h) is incubated with 8 mM MOPS pH 7.0, 0.2 mM EDTA, 50 μM […], 10 mM MgAcetate and [γ-^33P-ATP] (specific” for “(specific”
as §4

T2 sequence (P29597 whole entry): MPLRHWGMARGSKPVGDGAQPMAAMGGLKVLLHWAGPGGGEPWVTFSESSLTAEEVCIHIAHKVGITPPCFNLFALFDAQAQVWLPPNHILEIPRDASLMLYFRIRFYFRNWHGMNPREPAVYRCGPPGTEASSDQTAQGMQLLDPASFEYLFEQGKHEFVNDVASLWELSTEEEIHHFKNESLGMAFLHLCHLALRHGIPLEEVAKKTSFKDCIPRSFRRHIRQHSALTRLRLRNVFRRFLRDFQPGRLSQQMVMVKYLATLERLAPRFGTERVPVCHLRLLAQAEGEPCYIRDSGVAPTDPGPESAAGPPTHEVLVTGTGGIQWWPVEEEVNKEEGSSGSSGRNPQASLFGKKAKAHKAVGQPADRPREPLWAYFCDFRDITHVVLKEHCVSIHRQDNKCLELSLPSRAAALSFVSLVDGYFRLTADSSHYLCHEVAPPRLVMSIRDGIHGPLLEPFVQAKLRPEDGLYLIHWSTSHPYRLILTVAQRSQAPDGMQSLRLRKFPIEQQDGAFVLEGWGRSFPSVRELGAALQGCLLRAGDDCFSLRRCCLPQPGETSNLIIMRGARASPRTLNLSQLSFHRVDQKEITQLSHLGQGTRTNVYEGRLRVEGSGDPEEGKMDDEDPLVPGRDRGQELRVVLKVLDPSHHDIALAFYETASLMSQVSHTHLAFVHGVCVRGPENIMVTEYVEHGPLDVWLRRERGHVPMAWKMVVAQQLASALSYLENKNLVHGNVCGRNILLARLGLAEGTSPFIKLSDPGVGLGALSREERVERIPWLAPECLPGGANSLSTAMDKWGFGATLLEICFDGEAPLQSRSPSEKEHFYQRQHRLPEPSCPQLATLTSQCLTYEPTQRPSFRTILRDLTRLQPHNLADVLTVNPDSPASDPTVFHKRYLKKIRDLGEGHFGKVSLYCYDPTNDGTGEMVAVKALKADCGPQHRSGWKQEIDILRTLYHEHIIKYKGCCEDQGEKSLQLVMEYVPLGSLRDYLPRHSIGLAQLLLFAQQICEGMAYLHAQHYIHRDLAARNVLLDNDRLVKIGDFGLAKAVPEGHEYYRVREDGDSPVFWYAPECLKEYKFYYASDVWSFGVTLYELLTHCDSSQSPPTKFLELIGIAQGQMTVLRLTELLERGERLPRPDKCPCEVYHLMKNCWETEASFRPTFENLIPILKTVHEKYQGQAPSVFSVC
T3 sequence (P35916 25-1363): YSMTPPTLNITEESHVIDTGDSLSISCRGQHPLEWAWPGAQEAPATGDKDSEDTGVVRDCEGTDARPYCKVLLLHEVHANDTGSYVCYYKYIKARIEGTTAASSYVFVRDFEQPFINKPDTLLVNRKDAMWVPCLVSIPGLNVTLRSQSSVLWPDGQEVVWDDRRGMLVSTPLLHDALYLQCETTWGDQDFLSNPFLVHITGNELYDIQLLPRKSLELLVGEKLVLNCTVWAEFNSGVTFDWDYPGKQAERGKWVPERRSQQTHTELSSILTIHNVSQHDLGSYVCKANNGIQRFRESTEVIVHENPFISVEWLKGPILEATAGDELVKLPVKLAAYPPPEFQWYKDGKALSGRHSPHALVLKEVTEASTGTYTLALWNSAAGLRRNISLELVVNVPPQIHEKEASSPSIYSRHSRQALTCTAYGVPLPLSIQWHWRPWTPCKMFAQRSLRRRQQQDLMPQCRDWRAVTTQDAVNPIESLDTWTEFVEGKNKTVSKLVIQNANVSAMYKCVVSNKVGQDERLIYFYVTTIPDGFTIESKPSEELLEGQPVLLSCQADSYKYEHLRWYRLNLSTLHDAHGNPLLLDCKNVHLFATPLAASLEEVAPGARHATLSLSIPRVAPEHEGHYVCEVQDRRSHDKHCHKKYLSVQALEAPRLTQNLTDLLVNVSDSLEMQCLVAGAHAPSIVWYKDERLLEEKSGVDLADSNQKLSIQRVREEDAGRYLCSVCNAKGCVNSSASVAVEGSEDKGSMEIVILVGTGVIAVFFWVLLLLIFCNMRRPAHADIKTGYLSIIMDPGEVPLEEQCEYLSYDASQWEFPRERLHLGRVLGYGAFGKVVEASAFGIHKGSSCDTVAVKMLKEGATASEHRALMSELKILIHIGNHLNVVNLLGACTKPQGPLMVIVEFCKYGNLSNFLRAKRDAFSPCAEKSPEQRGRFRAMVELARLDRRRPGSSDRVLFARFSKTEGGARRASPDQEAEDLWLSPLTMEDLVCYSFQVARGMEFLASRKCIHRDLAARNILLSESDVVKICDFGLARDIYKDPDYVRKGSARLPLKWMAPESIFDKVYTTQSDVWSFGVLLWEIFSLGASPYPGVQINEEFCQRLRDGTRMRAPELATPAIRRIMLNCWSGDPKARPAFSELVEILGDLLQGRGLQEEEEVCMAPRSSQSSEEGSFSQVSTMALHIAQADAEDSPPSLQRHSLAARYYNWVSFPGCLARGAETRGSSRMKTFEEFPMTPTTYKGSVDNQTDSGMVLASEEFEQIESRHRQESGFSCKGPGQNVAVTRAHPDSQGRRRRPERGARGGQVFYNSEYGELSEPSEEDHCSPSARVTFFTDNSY

Row | Compound | IC50 (JAK3 (h)) | IC50 (TYK2 (h)) | IC50 (FLT4 (h))
1 | N#Cc1ccc(N2CCC(Nc3nc(Nc4ccn5c(C(F)F)nnc5c4)ncc3Cl)CC2)nc1 [Example 30, 6-(4-((5-chloro-2-((3-(difluoromethyl)-[1,2,4]triazolo[4,3-a]pyridin-7-yl)amino)pyrimidin-4-yl)amino)piperidin-1-yl)nicotinonitrile] | 127 nM | 4 nM | –
2 | Cc1nc2cc(Nc3ncc(Cl)c(NC4CCN(c5ccc(C#N)cn5)CC4)n3)ccn2n1 [Example 32, 6-(4-((5-chloro-2-((2-methyl-[1,2,4]triazolo[1,5-a]pyridin-7-yl)amino)pyrimidin-4-yl)amino)piperidin-1-yl)nicotinonitrile] | 60 nM | 2 nM | –
3 | CC(C)(O)c1nc2cc(Nc3ncc(Cl)c(NC4CCN(c5ccc(C#N)nn5)CC4)n3)ccn2n1 [Example 55, 6-(4-((5-chloro-2-((2-(2-hydroxypropan-2-yl)-[1,2,4]triazolo[1,5-a]pyridin-7-yl)amino)pyrimidin-4-yl)amino)piperidin-1-yl)pyridazine-3-carbonitrile] | 291 nM | – | 95 nM
4 | CC(O)Cn1cnc2cc(Nc3ncc(Cl)c(NC4CCN(c5ccc(C#N)cn5)CC4)n3)ccc21 (centres unmarked) [Example 61, 6-(4-((5-chloro-2-((1-(2-hydroxypropyl)-1H-benzo[d]imidazol-5-yl)amino)pyrimidin-4-yl)amino)piperidin-1-yl)nicotinonitrile] | 5 nM | 0.9 nM | 20 nM
5 | CC(C)(O)Cc1nc2ccc(Nc3ncc(Cl)c(NC4CCN(c5ccc(C#N)cn5)CC4)n3)cn2n1 [Example 67, 6-(4-((5-chloro-2-((2-(2-hydroxy-2-methylpropyl)-[1,2,4]triazolo[1,5-a]pyridin-6-yl)amino)pyrimidin-4-yl)amino)piperidin-1-yl)nicotinonitrile] | – | 8 nM | 113 nM
6 | CC(C)(O)Cn1nnc2cc(Nc3ncc(Cl)c(NC4CCN(c5ccc(C#N)cn5)CC4)n3)ccc21 [Example 69, 6-(4-((5-chloro-2-((1-(2-hydroxy-2-methylpropyl)-1H-benzo[d][1,2,3]triazol-5-yl)amino)pyrimidin-4-yl)amino)piperidin-1-yl)nicotinonitrile] | 5 nM | 0.7 nM | 15 nM
7 | CC(C)(O)Cc1cn2cc(Nc3ncc(Cl)c(NC4CCN(c5ccc(C#N)cn5)CC4)n3)ccc2n1 [Example 73, 6-(4-((5-chloro-2-((2-(2-hydroxy-2-methylpropyl)imidazo[1,2-a]pyridin-6-yl)amino)pyrimidin-4-yl)amino)piperidin-1-yl)nicotinonitrile] | 112 nM | – | 87 nM
8 | CC(C)(O)Cc1nnc2cc(Nc3ncc(Cl)c(NC4CCN(c5ccc(C#N)cn5)CC4)n3)ccn12 [Example 74, 6-(4-((5-chloro-2-((3-(2-hydroxy-2-methylpropyl)-[1,2,4]triazolo[4,3-a]pyridin-7-yl)amino)pyrimidin-4-yl)amino)piperidin-1-yl)nicotinonitrile] | 64 nM | – | 57 nM
9 | CC(C)(O)Cc1nnc2cc(Nc3ncc(Cl)c(NC4CCN(c5ccc(C#N)nn5)CC4)n3)ccn12 [Example 75, 6-(4-((5-chloro-2-((3-(2-hydroxy-2-methylpropyl)-[1,2,4]triazolo[4,3-a]pyridin-7-yl)amino)pyrimidin-4-yl)amino)piperidin-1-yl)pyridazine-3-carbonitrile] | 202 nM | – | 202 nM
10 | CC(C)(O)Cc1nc2cc(Nc3ncc(Cl)c(NC4CCN(c5ccc(C#N)nn5)CC4)n3)ccn2n1 [Example 77, 6-(4-((5-chloro-2-((2-(2-hydroxy-2-methylpropyl)-[1,2,4]triazolo[1,5-a]pyridin-7-yl)amino)pyrimidin-4-yl)amino)piperidin-1-yl)pyridazine-3-carbonitrile] | 353 nM | 9 nM | 166 nM
11 | CC(C)(O)Cc1nc2cc(Nc3ncc(Cl)c(NC4CCN(c5ccc(C#N)cn5)CC4)n3)ccn2n1 [Example 78, 6-(4-((5-chloro-2-((2-(2-hydroxy-2-methylpropyl)-[1,2,4]triazolo[1,5-a]pyridin-7-yl)amino)pyrimidin-4-yl)amino)piperidin-1-yl)nicotinonitrile] | 344 nM | 5 nM | 117 nM
